The target in assay [1] is T1, Lysine-specific demethylase 4B (Homo sapiens, UniProt O94953).
T1 sequence (O94953 whole entry): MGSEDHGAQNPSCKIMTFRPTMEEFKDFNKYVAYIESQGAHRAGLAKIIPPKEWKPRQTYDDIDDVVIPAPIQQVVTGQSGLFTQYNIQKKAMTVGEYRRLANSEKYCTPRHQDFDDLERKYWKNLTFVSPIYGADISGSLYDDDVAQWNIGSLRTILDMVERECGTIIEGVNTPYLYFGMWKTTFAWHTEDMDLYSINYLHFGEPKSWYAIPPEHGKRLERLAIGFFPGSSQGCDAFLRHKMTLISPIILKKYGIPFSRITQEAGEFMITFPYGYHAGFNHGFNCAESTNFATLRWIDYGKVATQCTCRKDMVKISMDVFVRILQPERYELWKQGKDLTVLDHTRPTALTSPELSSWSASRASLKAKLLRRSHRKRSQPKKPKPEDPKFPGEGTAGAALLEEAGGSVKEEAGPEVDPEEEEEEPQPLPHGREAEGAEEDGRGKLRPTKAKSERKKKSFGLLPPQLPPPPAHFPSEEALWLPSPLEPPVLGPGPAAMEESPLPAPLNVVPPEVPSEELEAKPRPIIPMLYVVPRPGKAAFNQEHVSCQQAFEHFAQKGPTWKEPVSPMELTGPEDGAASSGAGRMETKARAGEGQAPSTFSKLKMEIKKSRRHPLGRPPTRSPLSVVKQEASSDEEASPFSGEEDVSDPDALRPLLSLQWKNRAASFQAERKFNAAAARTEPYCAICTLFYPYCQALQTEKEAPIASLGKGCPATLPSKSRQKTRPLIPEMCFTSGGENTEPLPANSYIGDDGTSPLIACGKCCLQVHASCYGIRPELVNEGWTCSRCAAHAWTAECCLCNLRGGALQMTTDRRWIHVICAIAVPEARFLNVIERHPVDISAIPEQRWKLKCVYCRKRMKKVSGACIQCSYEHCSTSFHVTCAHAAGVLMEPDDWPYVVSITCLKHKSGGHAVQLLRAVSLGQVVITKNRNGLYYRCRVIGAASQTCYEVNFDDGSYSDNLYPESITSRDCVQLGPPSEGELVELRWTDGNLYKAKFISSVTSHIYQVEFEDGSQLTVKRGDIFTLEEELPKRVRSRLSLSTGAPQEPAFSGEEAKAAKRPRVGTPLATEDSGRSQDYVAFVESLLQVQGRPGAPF
As to the kind of experiment: Binding affinity to 6His-tagged and human KDM4B tandem TUDOR domain (916 to 1030 residues) expressed in Escherichia coli BL21(DE3)-T1R by ITC method. (ITC needs no label: the signal is the heat of the interaction.)

Assay [2] addresses T2, Lysine-specific demethylase 4A (Homo sapiens, UniProt O75164).
T2 sequence (O75164 whole entry): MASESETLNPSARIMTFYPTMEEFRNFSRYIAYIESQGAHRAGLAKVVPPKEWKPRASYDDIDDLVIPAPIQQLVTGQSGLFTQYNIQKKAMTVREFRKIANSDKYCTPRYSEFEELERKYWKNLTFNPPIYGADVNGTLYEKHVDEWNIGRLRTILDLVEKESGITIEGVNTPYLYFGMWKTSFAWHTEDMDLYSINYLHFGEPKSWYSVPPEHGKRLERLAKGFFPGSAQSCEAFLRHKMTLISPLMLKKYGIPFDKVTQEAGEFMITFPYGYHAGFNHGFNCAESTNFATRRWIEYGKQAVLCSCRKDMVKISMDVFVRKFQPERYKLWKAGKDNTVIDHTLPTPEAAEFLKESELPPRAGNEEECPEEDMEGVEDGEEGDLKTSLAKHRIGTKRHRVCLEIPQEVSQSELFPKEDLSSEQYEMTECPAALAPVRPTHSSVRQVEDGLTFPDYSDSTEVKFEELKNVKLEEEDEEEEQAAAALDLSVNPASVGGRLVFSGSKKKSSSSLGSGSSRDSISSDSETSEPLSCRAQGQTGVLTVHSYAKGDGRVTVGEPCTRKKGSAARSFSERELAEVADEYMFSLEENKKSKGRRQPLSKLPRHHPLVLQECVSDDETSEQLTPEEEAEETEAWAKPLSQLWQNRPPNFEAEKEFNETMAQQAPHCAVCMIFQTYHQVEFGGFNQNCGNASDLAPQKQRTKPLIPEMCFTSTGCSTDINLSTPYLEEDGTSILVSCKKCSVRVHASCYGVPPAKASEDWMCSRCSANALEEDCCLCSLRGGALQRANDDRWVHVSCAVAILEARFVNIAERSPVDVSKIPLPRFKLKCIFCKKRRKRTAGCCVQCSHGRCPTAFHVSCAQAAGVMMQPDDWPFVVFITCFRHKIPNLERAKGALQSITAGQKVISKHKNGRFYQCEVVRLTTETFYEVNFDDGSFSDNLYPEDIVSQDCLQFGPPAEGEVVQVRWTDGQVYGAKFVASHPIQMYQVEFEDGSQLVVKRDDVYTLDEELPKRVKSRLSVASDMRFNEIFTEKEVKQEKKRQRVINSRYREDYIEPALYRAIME
The experiment in a line: Inhibition of H3(1-10)K4me3 peptide binding to thrombin cleavable N-terminal 6His tagged and 13C-IVLM labeled human KDM4A tandem TUDOR domain (897 to 1011 residues) expressed in Escherichia coli BL21(DE3)-T1R by ITC method.

Structures are written as SMILES.

This note sets out measurements from ChEMBL document CHEMBL4190382, “Targeting lysine specific demethylase 4A (KDM4A) tandem TUDOR domain - A fragment based approach” (Bioorg Med Chem Lett, 2018).

Take `CN(C)C[C@H]1C2CCC(c3ccccc3)(C2)[C@H]1O` (some centres not stated): in assay [1], the Kd (commonly a measure of binding affinity in units of concentration) came to 127 µM. Further, in assay [2], the affinity, expressed as Ki, was 170 µM.
